Experimental data reported in patent EP4759810A1, “PROTAC TARGETING BCL-XL PROTEIN AND USE THEREOF” (BEIJING SUNCELL BIO-MEDICAL CO., LTD., priority 2023, dated 2025).

What was measured:
HEF cells = assay: Senescent cell killing activity test, HEF cell model (CCK-8); format: cell-based, human; settings: for activity for killing senescent cells at lower concentrations compared to A-1331852: HEF cell model, 0.01 µM and 0.03 µM; for killing senescent HEF cells: etoposide-induced senescent vs normal HEF cells, Figures 3A-3F; for toxicity on normal non-senescent HEF cells: higher concentration (25 µM)
MRC5 cells = assay: Senescent cell killing activity test, MRC5 cell model (CCK-8); format: cell-based, human
Protocol: (§1) To avoid replication of the induced senescent cells, low-passage proliferating HEF cells (<10 passages), MRC5 cells (<6 passages), and BJ cells (<10 passages) were used as normal controls. For chemical drug induced senescence, HEF cells were treated with 10 µM etoposide (Selleck, S1225) for 36-48 hours, MRC5 cells were treated with 5 µM bleomycin (Selleck, S1225) for 72 hours, and BJ cells were treated with 10 µg/mL bleomycin for 72 hours. Three days after the treatment, the cells were subcultured in fresh culture medium at a 1:3 ratio for 72 hours before further analysis and use.
(§2) Non-senescent and induced-senescent HEF cells, non-senescent and induced-senescent MRC5 cells, and non-senescent and induced-senescent BJ cells were respectively digested with trypsin, and centrifuged at 1000 rpm for 5 minutes. Then, the supernatant was removed, and the cells were resuspended in fresh DMEM culture medium containing 10% fetal bovine serum for counting. The cell density was adjusted so that the non-senescent cell density was 4000 cells/100 µL and the senescent cell density was 7000 cells/100 µL. 100 µL of the cell suspension was added to each well of a 96-well transparent cell culture plate. It was noted that the edge wells of the 96-well plate were not used as testing wells, and 300 µL of PBS alone was added to these wells to reduce evaporation of the culture medium. The 96-well plates with the well-plated cells were placed back in a 37°C incubator for overnight culture until the cells adhered. On the next day, the small molecule compounds to be tested were prepared and added after the cells had adhered.
(§3) A series of small molecule concentration gradients (0.01, 0.03, 0.1, 0.3, 1, 3, 10, and 25 µM) were pre-set, and a series of 2× drug dilutions for the above concentrations were prepared in DMEM culture medium containing 10% fetal bovine serum. 100 µL of the above DMEM culture medium containing the gradient concentrations of the drug was added to each well of the 96-well plate that had been well-plated with cells, so that the final drug concentration in each well was the pre-set series of concentrations. Three replicate wells were used for each test drug concentration. The 96-well plates were placed back in a 37°C incubator, and cell viability was measured after three days.
(§4) Three days after adding the drug, the plates were taken out, and the supernatant was discarded. 100 µL of pre-prepared CCK-8 working solution was added to each well. The CCK-8 working solution was obtained through diluting a CCK-8 stock solution (C0041, Beyotime) with a serum-free DMEM culture medium by 10-fold volumn. The 96-well plates containing the CCK-8 working solution were placed back in the 37°C incubator and incubated for 0.5-2 hours. The plates were then taken out, and the absorbance value (OD value) of each well was measured at a wavelength of 450 nm. The cell viability in each experimental group was calculated according to the following formula: Relative cell viability (%) = (Blank control group - Experimental group) / Blank control group × 100%.

BJ cells = assay: Senescent cell killing activity test, BJ cell model (CCK-8); format: cell-based, human; settings: Figures 3M-3O
Protocol: as §1, §2, §3, §4

Bcl-xL protein = target: T1, Bcl-xL protein (Homo sapiens, UniProt Q07817); assay: Degradation experiment of Bcl-xL target protein (Western blot in Molt-4 cells); format: cell-based; settings: 100 nM, 0, 2, 6, 16 h, GAPDH internal control, Figure 4
T1 construct: host or cells: Molt-4 cells
T1 sequence (Q07817 whole entry): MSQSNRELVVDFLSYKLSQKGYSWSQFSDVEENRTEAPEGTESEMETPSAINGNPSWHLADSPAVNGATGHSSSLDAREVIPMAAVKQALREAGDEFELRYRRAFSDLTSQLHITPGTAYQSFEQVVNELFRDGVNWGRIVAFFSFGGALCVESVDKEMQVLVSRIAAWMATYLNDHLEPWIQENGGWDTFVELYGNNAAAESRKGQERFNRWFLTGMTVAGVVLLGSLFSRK
Protocol: Actively growing and healthy Molt-4 cells were subcultured into a fresh RPMI-1640 medium containing 10% fetal bovine serum, and each PROTAC molecule was added thereto at a final concentration of 100 nM. After drug treatment for the specified times (0, 2, 6, and 16 hours), the cells were collected, the supernatant was discarded by centrifugation, and the cells were washed twice with pre-cooled PBS buffer. Total protein was extracted with a lysis buffer (Servicebio, G2002-100ML), and the protein concentration was normalized by using a BCA protein quantification kit (Servicebio, G2026). Protein samples were mixed with a protein-loading buffer and incubated at 95°C for 5 minutes. Western blotting experiments were performed by using the following antibodies: Bcl-xL (Abcam, catalog number ab32370), diluted at 1:500; GAPDH antibody (Servicebio, catalog number GB15004), diluted at 1:1000; and horseradish peroxidase-conjugated goat anti-rabbit secondary antibody (Servicebio, catalog number GB23303), diluted at 1:5000.

[1] = Metabolic stability assay in liver microsomes (human); format: in vitro ADME
Protocol: (§5) The metabolic reaction of compounds in liver microsome was performed in a system with a total volume of 400 µL, and the following steps below were sequentially performed for the reaction and detection: 1) 200 µL of phosphate buffer (200 mM), 106 µL of sterile ultrapure water, and 40 µL of magnesium chloride solution (50 mM) were added to each detection tube to prepare a reaction working solution. 2) Two reaction systems with or without adding NADPH were prepared for each compound to be tested. For the reaction system with adding NADPH: 10 µL of liver microsomes (20 mg/mL) and 40 µL of NADPH (10 mM) were added to the above working solution; for the reaction system without adding NADPH: 10 µL of liver microsomes (20 mg/mL) and 40 µL of sterile ultrapure water were added to the above working solution. The final concentration of liver microsomes in both reaction systems was 0.5 mg/mL. 3) 4 µL of the compound to be tested ([…]) was added to each reaction tube, resulting in a final concentration of 1 µM for the compound in the reaction system. The detection tubes were placed at 37°C for reaction. 4) 50 µL samples were taken from each detection tube at 0, 15, 30, 45, and 60 minutes after adding the compound. The reaction was terminated by adding cold acetonitrile containing IS (100 nM alprazolam, 200 nM labetalol, 200 nM caffeine, and 2 µM ketoprofen) in a 4× volume. The samples were centrifuged at 3220 g for 40 minutes, 100 µL of the supernatant was mixed with 100 µL of ultrapure water, and a sample was taken for LC-MS/MS analysis.
(§6) Calculation of in vitro liver microsomal metabolic half-life and in vitro metabolic intrinsic clearance rate: The LC-MS detection results were analyzed to obtain the percentage of the remaining amount of the tested compound relative to the initial amount at each time point. The natural logarithm of the remaining percentage was linearly fitted against the incubation time.

[2] = Metabolic stability assay in liver microsomes (mouse); format: in vitro ADME
Protocol: as §5, §6

[3] = human liver microsomes 0.5 mg/mL, 1 µM compound, 37°C
[4] = mouse liver microsomes 0.5 mg/mL, 1 µM compound, 37°C

Compound | activity for killing senescent cells at lower concentrations compared to A-1331852 (HEF cells) | killing senescent HEF cells (HEF cells) | toxicity on normal non-senescent HEF cells (HEF cells) | activity for killing senescent cells at lower concentrations compared to A-1331852 (MRC5 cells; 0.01 µM and 0.03 µM) | selectivity for senescent cells (MRC5 cells; Figures 3G-3L) | killing effects for senescent cells (BJ cells; bleomycin-induced senescent skin-derived BJ cell model) | killing effect for the normal early-passage BJ cells (BJ cells; normal BJ cells) | degradation of the Bcl-xL protein (Bcl-xL protein) | Clint [1, 3] [µL/min/mg protein] | half-life at 1 µM [1, 3] [h] | microsomal CLint at 1 µM ([1]; human liver microsomes, read-out: clearance rate (metabolic clearance rate)) [µL/min/mg] | Clint [2, 4] [µL/min/mg protein] | half-life at 1 µM [2, 4] [h] | microsomal CLint at 1 µM ([2]; mouse liver microsomes, read-out: clearance rate (metabolic clearance rate)) [µL/min/mg]
O=C1CCN(c2ccc(N3CCC(CN4CCN(CC#Cc5ccc(OCCCc6ccc(N7CCc8cccc(C(=O)Nc9nc%10ccccc%10s9)c8C7)nc6C(=O)O)c(F)c5)CC4)CC3)cc2)C(=O)N1 [APQ10] | better activity for killing senescent cells at lower concentrations | efficiently and selectively kill senescent HEF cells | no toxicity on normal non-senescent HEF cells | superior to that of A-1331852 | better selectivity for senescent cells | highly selective and potent killing effects for senescent cells | without significant killing effect for the normal early-passage BJ cells | had the ability to degrade the Bcl-xL protein |  |  |  |  |  | 
O=C1CCC(N2C(=O)c3cccc(NCCN4CCC(CN5CCN(CC#Cc6ccc(OCCCc7ccc(N8CCc9cccc(C(=O)Nc%10nc%11ccccc%11s%10)c9C8)nc7C(=O)O)c(F)c6)CC5)CC4)c3C2=O)C(=O)N1 (stereo not drawn) [APQ2] | better activity for killing senescent cells at lower concentrations | efficiently and selectively kill senescent HEF cells | no toxicity on normal non-senescent HEF cells |  |  |  |  | had the ability to degrade the Bcl-xL protein | 2.77 | 8.34 | 2.77 | 4.30 | 5.37 | 4.3
